# According to patent US20060069123A1, “Substituted dipiperidine CCR2 antagonists” (priority 2004, published 2006):
# Read-outs that look alike come from different tables or passages of the source.
# Legend:
# THP-1 cells [1] = assay: MCP-1 Induced Chemotaxis in THP-1 Cells; assay type: cell-based; conditions: Homo sapiens; THP-1 cells, MCP-1 0.01 μg/mL, 3 hours; read-out: Inhibition of MCP-1 Induced Chemotaxis IC50
# Protocol: MCP-1 Induced Chemotaxis in THP-1 Cells
# MCP-1 induced chemotaxis was run in a 24-well chemotaxis chamber. MCP-1 (0.01 μg/mL) was added to the lower chamber and 100 μL of THP-1 cells (1×10^7 cell/mL) was added to the top chamber. Varying concentrations of test compound were added to the top and bottom chambers. Cells were allowed to chemotax for 3 hours at 37° C. and 5% CO2. An aliquot of the cells that had migrated to the bottom chamber was taken and counted then compared to vehicle.
# CCR2 = molecular target: T1, CCR2 (Homo sapiens, UniProt P41597)
# T1 sequence (P41597 1-360 isoform P41597-2): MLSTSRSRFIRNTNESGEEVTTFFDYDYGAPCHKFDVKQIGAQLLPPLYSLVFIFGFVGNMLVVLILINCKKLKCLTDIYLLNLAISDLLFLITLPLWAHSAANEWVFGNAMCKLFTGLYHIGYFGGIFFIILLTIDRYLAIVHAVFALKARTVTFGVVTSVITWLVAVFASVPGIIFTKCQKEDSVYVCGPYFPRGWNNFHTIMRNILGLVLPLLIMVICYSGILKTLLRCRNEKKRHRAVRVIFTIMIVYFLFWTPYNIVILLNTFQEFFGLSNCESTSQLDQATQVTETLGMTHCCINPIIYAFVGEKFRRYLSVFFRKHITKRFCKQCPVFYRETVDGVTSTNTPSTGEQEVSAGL
# THP-1 cells [2] = conditions: Homo sapiens, THP-1, read-out: Inhibition of MCP-1 Induced Calcium Ion Influx IC50
SMILES,IC50 (THP-1 cells [1]) [nM],IC50 (CCR2) [nM],IC50 (THP-1 cells [2]) [nM]
"COc1ccc2[nH]cc(C3CCN(C(C(=O)O)C4CCN(C(=O)/C=C/c5ccc(Cl)c(Cl)c5)CC4)CC3)c2c1 (centres unmarked) [Cpd 47, {1-[(2E)-3-(3,4-dichloro-phenyl)-acryloyl]-piperidin-4-yl}-[4-(5-methoxy-1H-indol-3-yl)-piperidin-1-yl]-acetic acid]",0.2,10,–
"O=C(O)C(C1CCN(C(=O)Nc2ccc(F)c(Cl)c2)CC1)N1CCC(c2c[nH]c3ccccc23)CC1 (centres unmarked) [Cpd 48, [1-(3-chloro-4-fluoro-phenylcarbamoyl)-piperidin-4-yl]-[4-(1H-indol-3-yl)-piperidin-1-yl]-acetic acid]",40,30,–
"Cc1ccc(NC(=O)N2CCC(C(C(=O)O)N3CCC(c4c[nH]c5ccccc45)CC3)CC2)cc1Cl (centres unmarked) [Cpd 49, [1-(3-chloro-4-methyl-phenylcarbamoyl)-piperidin-4-yl]-[4-(1H-indol-3-yl)-piperidin-1-yl]-acetic acid]",4,25,–
"O=C(O)C(C1CCN(C(=O)Nc2ccc(Cl)c(C(F)(F)F)c2)CC1)N1CCC(c2c[nH]c3ccccc23)CC1 (centres unmarked) [Cpd 57, [1-(4-chloro-3-trifluoromethyl-phenylcarbamoyl)-piperidin-4-yl]-[4-(1H-indol-3-yl)-piperidin-1-yl]-acetic acid]",3,20,–
"O=C(O)C(C1CCN(C(=O)Nc2ccc(F)c(C(F)(F)F)c2)CC1)N1CCC(c2c[nH]c3ccccc23)CC1 (centres unmarked) [Cpd 58, [1-(4-fluoro-3-trifluoromethyl-phenylcarbamoyl)-piperidin-4-yl]-[4-(1H-indol-3-yl)-piperidin-1-yl]-acetic acid]",130,90,–
"Cc1cccc(/C=C/C(=O)N2CCC(C(C(=O)O)N3CCC(c4c[nH]c5ccccc45)CC3)CC2)c1 (centres unmarked) [Cpd 70, [4-(1H-indol-3-yl)-piperidin-1-yl]-{1-[(2E)-3-m-tolyl-acryloyl]-piperidin-4-yl}-acetic acid]",20,3,–
"O=C(O)C(C1CCN(C(=O)/C=C/c2cccc(Br)c2)CC1)N1CCC(c2c[nH]c3ccccc23)CC1 (centres unmarked) [Cpd 71, {1-[(2E)-3-(3-bromo-phenyl)-acryloyl]-piperidin-4-yl}-[4-(1H-indol-3-yl)-piperidin-1-yl]-acetic acid]",7,20,–
"Cc1ccc(/C=C/C(=O)N2CCC(C(C(=O)O)N3CCC(c4c[nH]c5ccccc45)CC3)CC2)cc1F (centres unmarked) [Cpd 74, {1-[(2E)-3-(3-fluoro-4-methyl-phenyl)-acryloyl]-piperidin-4-yl}-[4-(1H-indol-3-yl)-piperidin-1-yl]-acetic acid]",6,5,–
"O=C(O)C(C1CCN(C(=O)/C=C/c2ccc(C(F)(F)F)c(F)c2)CC1)N1CCC(c2c[nH]c3ccccc23)CC1 (centres unmarked) [Cpd 75, {1-[(2E)-3-(3-fluoro-4-trifluoromethyl-phenyl)-acryloyl]-piperidin-4-yl}-[4-(1H-indol-3-yl)-piperidin-1-yl]-acetic acid]",9,4,–
"O=C(O)C(C1CCN(C(=O)/C=C/c2ccc(F)c(Cl)c2)CC1)N1CCC(c2c[nH]c3ccccc23)CC1 (centres unmarked) [Cpd 76, {1-[(2E)-3-(3-chloro-4-fluoro-phenyl)-acryloyl]-piperidin-4-yl}-[4-(1H-indol-3-yl)-piperidin-1-yl]-acetic acid]",10,2,–
"O=C(O)C(C1CCN(C(=O)/C=C/c2ccc(F)cc2)CC1)N1CCC(c2c[nH]c3ccccc23)CC1 (centres unmarked) [Cpd 77, {1-[(2E)-3-(4-fluoro-phenyl)-acryloyl]-piperidin-4-yl}-[4-(1H-indol-3-yl)-piperidin-1-yl]-acetic acid]",60,70,–
CC(C)(C)OC(=O)Nc1ccc2[nH]cc(C3CCN(C(C(=O)O)C4CCN(C(=O)/C=C/c5cc(F)c(F)c(F)c5)CC4)CC3)c2c1 (centres unmarked) [Cpd 81],30,30,–
"O=C(O)C(C1CCN(C(=O)Nc2cccc(Br)c2)CC1)N1CCC(c2c[nH]c3ccccc23)CC1 (centres unmarked) [Cpd 85, [1-(3-bromo-phenylcarbamoyl)-piperidin-4-yl]-[4-(1H-indol-3-yl)-piperidin-1-yl]-acetic acid]",190,170,–
"O=C(O)C(C1CCN(C(=O)Nc2cccc(Cl)c2)CC1)N1CCC(c2c[nH]c3ccccc23)CC1 (centres unmarked) [Cpd 86, [1-(3-chloro-phenylcarbamoyl)-piperidin-4-yl]-[4-(1H-indol-3-yl)-piperidin-1-yl]-acetic acid]",280,210,–
"O=C(O)C(C1CCN(C(=O)/C=C/c2cccc([N+](=O)[O-])c2)CC1)N1CCC(c2c[nH]c3ccccc23)CC1 (centres unmarked) [Cpd 92, [4-(1H-indol-3-yl)-piperidin-1-yl]-{1-[(2E)-3-(3-nitro-phenyl)-acryloyl]-piperidin-4-yl}-acetic acid]",100,40,–
"O=C(O)C(C1CCN(C(=O)/C=C/c2cccc(Cl)c2)CC1)N1CCC(c2c[nH]c3ccccc23)CC1 (centres unmarked) [Cpd 93, {1-[(2E)-3-(3-chloro-phenyl)-acryloyl]-piperidin-4-yl}-[4-(1H-indol-3-yl)-piperidin-1-yl]-acetic acid]",20,4,–
"COc1ccc2[nH]cc(C3CCN(C(C(=O)O)C4CCN(C(=O)Nc5ccc(Cl)c(Cl)c5)CC4)CC3)c2c1 (centres unmarked) [Cpd 94, [1-(3,4-dichloro-phenylcarbamoyl)-piperidin-4-yl]-[4-(5-methoxy-1H-indol-3-yl)-piperidin-1-yl]-acetic acid]",10,10,–
"COc1ccc2c(C3CCN(C(C(=O)O)C4CCN(C(=O)Nc5ccc(Cl)c(Cl)c5)CC4)CC3)c[nH]c2c1 (centres unmarked) [Cpd 95, [1-(3,4-dichloro-phenylcarbamoyl)-piperidin-4-yl]-[4-(6-methoxy-1H-indol-3-yl)-piperidin-1-yl]-acetic acid]",20,20,–
"OCC(C1CCN(C(=S)Nc2cccc(C(F)(F)F)c2)CC1)N1CCC(c2c[nH]c3ccccc23)CC1 (centres unmarked) [Cpd 120, 4-{2-hydroxy-1-[4-(1H-indol-3-yl)-piperidin-1-yl]-ethyl}-piperidine-1-carbothioic acid (3-trifluoromethyl-phenyl)-amide]",–,80,1
"OCC(C1CCN(C(=S)Nc2ccc(Cl)c(Cl)c2)CC1)N1CCC(c2c[nH]c3ccccc23)CC1 (centres unmarked) [Cpd 122, 4-{2-hydroxy-1-[4-(1H-indol-3-yl)-piperidin-1-yl]-ethyl}-piperidine-1-carbothioic acid (3,4-dichloro-phenyl)-amide]",–,40,0.8
"O=C(O)C(C1CCN(C(=O)/C=C/c2cc(F)c(F)c(F)c2)CC1)N1CCC(c2c[nH]c3ncccc23)CC1 (centres unmarked) [Cpd 151, [4-(1H-pyrrolo[2,3-b]pyridin-3-yl)-piperidin-1-yl]-{1-[(2E)-3-(3,4,5-trifluoro-phenyl)-acryloyl]-piperidin-4-yl}-acetic acid]",30,10,–
"O=C(/C=C/c1cc(F)cc(F)c1)N1CCC(C(CO)N2CCC(c3nc4ccccc4[nH]3)CC2)CC1 (centres unmarked) [Cpd 174, (2E)-1-(4-{1-[4-(1H-benzoimidazol-2-yl)-piperidin-1-yl]-2-hydroxy-ethyl}-piperidin-1-yl)-3-(3,5-difluoro-phenyl)-propenone]",450,150,–
